Experimental data from paper PMC9650016 (Brain, Behavior, & Immunity - Health, 2022).

Target: T1, PPM1A (protein phosphatase magnesium-dependent 1A; PP2Cα) (Homo sapiens, UniProt P35813)
T1 sequence (P35813 2-382): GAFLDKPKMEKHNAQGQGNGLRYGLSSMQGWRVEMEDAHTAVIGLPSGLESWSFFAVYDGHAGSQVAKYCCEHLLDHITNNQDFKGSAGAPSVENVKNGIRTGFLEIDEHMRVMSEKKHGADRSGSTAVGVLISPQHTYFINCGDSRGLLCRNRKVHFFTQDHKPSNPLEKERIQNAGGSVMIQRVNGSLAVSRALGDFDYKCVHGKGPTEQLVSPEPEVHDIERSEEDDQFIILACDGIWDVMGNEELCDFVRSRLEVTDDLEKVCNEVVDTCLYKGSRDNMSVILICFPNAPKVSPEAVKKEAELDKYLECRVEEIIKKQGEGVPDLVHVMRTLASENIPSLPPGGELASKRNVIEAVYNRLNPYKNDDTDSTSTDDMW
Assay: microscale thermophoresis
Type: binding

`CCCCCCCCCCCCCCCCOP(=O)([O-])OCC[N+](C)(C)C` [MF, Miltefosine] was tested. Which Kd did it give?
Its Kd is 2700 nM.
